TGI data for eight molecules are collected here from PubChem BioAssay (NCI).

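Growth conditions: 96-well plates. Treatment: test compound, 48 hours, 5 concentrations. Analysis: linear interpolation between bracketing concentrations; unreached endpoints set to highest concentration. TGI marks complete inhibition of growth.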

Some test systems named below: IGROV1 ovarian; SN12C renal; NCI-H226 lung; A549 NSCLC; T-47D breast; OVCAR-3 ovarian; SF-268 CNS; OVCAR-5 ovarian; SNB-19 CNS; SNB-75 CNS; RPMI-8226 leukemia; SK-OV-3 ovarian.
Assay in all cases: inhibition of tumour cell growth, NCI panel, 48 h

For `Clc1cc(OCc2nn3c(Cc4ccccc4)nnc3s2)c(Cl)cc1OCc1nn2c(Cc3ccccc3)nnc2s1`, the TGI in the test with IGROV1 ovarian, with SN12C renal, in the test on NCI-H226 lung, in the test with A549 NSCLC, with T-47D breast and in the test on OVCAR-3 ovarian was above 100 µM each time. The TGI in the test with SF-268 CNS was above 100 µM; with OVCAR-5 ovarian, above 100 µM; in the test with SNB-19 CNS it was 95.8 µM; in the test on SNB-75 CNS, 9.97 µM; in the test with RPMI-8226 leukemia it was 30.1 µM; with SK-OV-3 ovarian, 82.1 µM.

Turning to `S=c1[nH]n2c(COc3ccc(Cl)cc3)nnc2s1`, the TGI in the test on IGROV1 ovarian, in the test on SN12C renal, in the test on NCI-H226 lung, with A549 NSCLC, in the test with T-47D breast and with OVCAR-3 ovarian was above 100 µM throughout. Besides, the TGI in the test on SF-268 CNS, with OVCAR-5 ovarian, with SNB-19 CNS, with SNB-75 CNS, in the test on RPMI-8226 leukemia and in the test with SK-OV-3 ovarian was above 100 µM throughout.

For `O=C1C(c2c(O)[nH]c3ccc(Cl)cc23)=Nc2ccccc21`, the TGI in the test on IGROV1 ovarian was 19.3 µM; in the test with SN12C renal, above 100 µM; with NCI-H226 lung it was 37 µM; in the test on A549 NSCLC, 20.7 µM; with T-47D breast, above 100 µM; in the test on OVCAR-3 ovarian, 17.9 µM. Moreover, the TGI in the test on SF-268 CNS was 33.6 µM; in the test with OVCAR-5 ovarian, above 28.1 µM; in the test on SNB-19 CNS it was above 81.4 µM; in the test on SNB-75 CNS, 15.5 µM; with RPMI-8226 leukemia it was above 100 µM; with SK-OV-3 ovarian, 11.2 µM.

With `CC[C@@H]([C@H](O)c1ccccc1Cl)[N+](=O)[O-]`, the TGI in the test with IGROV1 ovarian, in the test on SN12C renal, in the test with NCI-H226 lung, with A549 NSCLC, in the test on T-47D breast and with OVCAR-3 ovarian was above 100 µM throughout. Besides, the TGI with SF-268 CNS, in the test with OVCAR-5 ovarian, in the test on SNB-19 CNS, in the test with SNB-75 CNS, in the test with RPMI-8226 leukemia and with SK-OV-3 ovarian was above 100 µM each time.

Take `CC(C)(C)C1=CC(=C2C=Cc3cc(O)ccc3O2)C=C(C(C)(C)C)C1=O`: the TGI in the test with IGROV1 ovarian is 3.04 µM; in the test on SN12C renal, 3.02 µM; in the test with NCI-H226 lung it was 3.43 µM; in the test on A549 NSCLC, 3.04 µM; with T-47D breast, 2.16 µM; in the test with OVCAR-3 ovarian it was 2.72 µM. The TGI with SF-268 CNS was 3.87 µM; in the test on OVCAR-5 ovarian, 3.94 µM; in the test on SNB-19 CNS it was 3.3 µM; in the test on SNB-75 CNS, 3.3 µM; with RPMI-8226 leukemia, 4.21 µM; in the test with SK-OV-3 ovarian it was 4.09 µM.

As to `Nc1ccc(Cn2ccc3c4c(N)nc(N)nc4ccc32)cc1`, the TGI in the test on IGROV1 ovarian is 18.7 µM; in the test on SN12C renal, 8.67 µM; in the test on NCI-H226 lung it was 27.7 µM; in the test with A549 NSCLC, 15.2 µM; with T-47D breast it was 6.18 µM; in the test on OVCAR-3 ovarian, 2.51 µM. The TGI in the test with SF-268 CNS is 25.6 µM; in the test with OVCAR-5 ovarian, 19.4 µM; in the test with SNB-19 CNS, 17.6 µM; in the test with SNB-75 CNS, 12.5 µM; in the test on RPMI-8226 leukemia, above 100 µM; in the test on SK-OV-3 ovarian, 25.4 µM.

As for `CC1(C)N=C(c2ccccc2)SC12S[C@@H]1CCCC[C@H]1S2`, the TGI with IGROV1 ovarian, in the test on SN12C renal, with NCI-H226 lung, with A549 NSCLC, with T-47D breast and with OVCAR-3 ovarian was above 100 µM in each case. In addition, the TGI in the test with SF-268 CNS was above 100 µM; in the test on OVCAR-5 ovarian, above 100 µM; in the test with SNB-19 CNS, 32.1 µM; with SNB-75 CNS, above 100 µM; with RPMI-8226 leukemia, above 100 µM; in the test with SK-OV-3 ovarian it was above 100 µM.

On to `N#C/C(=C\c1ccc([N+](=O)[O-])o1)c1n[nH]c(Cc2ccccc2)n1`, for which the TGI in the test with IGROV1 ovarian turned out to be 3.11 µM; in the test with SN12C renal, 4.03 µM; in the test with NCI-H226 lung it was 6.04 µM; with A549 NSCLC, 15 µM; with T-47D breast, 4.2 µM; in the test with OVCAR-3 ovarian, 3.01 µM. Moreover, the TGI in the test with SF-268 CNS came to 2.91 µM; in the test on OVCAR-5 ovarian it was 3.5 µM; in the test on SNB-19 CNS it was 17.3 µM; with SNB-75 CNS, 6.75 µM; with RPMI-8226 leukemia, 1.4 µM; with SK-OV-3 ovarian, 16.5 µM.
